Measured values: US11040994B2, “Cobalt complexes, process for preparation and use thereof” (COUNCIL OF SCIENTIFIC AND INDUSTRIAL RESEARCH, priority 2017, dated 2021)

Assays:
Tau PHFs = Tau PHFs (Homo sapiens, UniProt P10636); conditions: for Tau disaggregation by TEM: 0 hour; for Tau PHF disaggregation by TEM: prolonged incubation
Experimental: (§1) Disaggregation assay: The potency of the metal complexes for disaggregating the preformed Tau aggregates was also analysed. Soluble Tau was dissolved in assembly buffer and was incubated at 37° C. for PHF assembly. The formation of aggregates was analysed by fluorescence assay and SDS-PAGE. Thus formed aggregates were diluted to 0.91 mg/mL final concentration in 20 mM BES buffer, pH 7.4 and this mixture was incubated with increasing concentration of metal complex as discussed earlier.
Transmission Electron Microscopy (TEM): The degree of aggregates formation in presence of the metal complexes was analysed by TEM (Tecnai T-20). The assay mixture was diluted to 1 μM final concentration and spotted on the carbon coated copper grids. This was further stained by 2% uranyl acetate to observe the morphology of aggregates under TEM.

[1] = biological target: full-length Tau aggregates (Homo sapiens, UniProt P10636); conditions: highest concentration (range 0.01 mg/mL to 0.1 mg/mL); ThS fluorescence
Experimental: as §1
(§2) Thioflavin S fluorescence assay: 5 μl of reaction mixture was diluted with 8 μM ThS in 50 mM ammonium acetate, pH 7.4 and added to 384 well plates in triplicates. Subsequently blank was also prepared for subtracting background fluorescence. The plate was incubated in the dark before measuring ThS fluorescence for 20 minutes, at an emission wavelength of 521 nm by exciting it at 440 nm in Tecan Infinite 200 PRO multimode microplate reader.

full-length Tau = full-length Tau (Homo sapiens, UniProt P10636); conditions: for maximum inhibition of full-length Tau aggregation: 0.05 and 0.1 mg/mL complex
Experimental: Tau was induced to aggregate as described previously with certain modifications. In presence heparin (17,500 Da) in the ratio of 4:1, Tau was polymerized in assembly buffer containing 20 mM BES. pH 7.4, 25 mM NaCl, 1 mM DTT, 0.01% NaN3 and protease inhibitor cocktails. The reaction mixture was incubated at 37° C. and the aggregates formation was monitored by ThS fluorescence, SDS-PAGE and TEM at certain time intervals. The Tau protein was allowed to assemble in presence and absence of compounds in increasing concentrations with constant Tau concentrations of 0.91 mg/mL and 0.28 mg/mL for full-length and four repeat Tau respectively. The changes in the conformation of Tau protein was monitored by CD spectroscopy.
as §2

[2] = heparin as inducer, ThS fluorescence

full-length Tau, sequence (P10636 1-441 isoform P10636-8): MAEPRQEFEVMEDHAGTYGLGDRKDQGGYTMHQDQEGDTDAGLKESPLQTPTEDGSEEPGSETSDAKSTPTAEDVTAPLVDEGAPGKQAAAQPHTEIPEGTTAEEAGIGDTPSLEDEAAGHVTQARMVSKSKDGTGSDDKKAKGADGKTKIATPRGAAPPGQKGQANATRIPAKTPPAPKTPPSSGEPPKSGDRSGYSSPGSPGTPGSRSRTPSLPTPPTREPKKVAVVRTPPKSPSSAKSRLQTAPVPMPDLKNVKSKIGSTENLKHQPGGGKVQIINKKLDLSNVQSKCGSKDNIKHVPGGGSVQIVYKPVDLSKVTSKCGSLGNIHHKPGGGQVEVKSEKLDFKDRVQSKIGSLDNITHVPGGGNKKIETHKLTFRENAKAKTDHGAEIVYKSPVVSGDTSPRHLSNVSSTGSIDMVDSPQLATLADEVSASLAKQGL
full-length Tau aggregates, sequence (P10636 1-441 isoform P10636-8): as above
Tau PHFs, sequence (P10636 1-441 isoform P10636-8): as above

Molecule | Tau disaggregation by TEM (Tau PHFs) | Tau PHF disaggregation by TEM (Tau PHFs) | disaggregation of full-length Tau aggregates [1] [%] | maximum inhibition of full-length Tau aggregation (full-length Tau; [2]) | effectiveness in inhibiting aggregation compared between complexes (full-length Tau; lower concentration) | inhibition rate of full-length Tau aggregation (full-length Tau; highest concentration of 0.1 mg/mL, heparin as inducer, ThS fluorescence) [%]
Cobalt(II)(2,6-bis((4-methylpiperazin-1-yl)methyl)pyridine)chloride [L3] | very negligible effect | destructed into shorter filaments | 77 | about 97% | – | –
[Cl][Co][Cl].c1cc(CN2CCOCC2)nc(CN2CCOCC2)c1 [L2, Cobalt(II)(2,6-bis(morpholinomethyl)pyridine)chloride] | very negligible effect | destructed into shorter filaments | 72 | about 97% | more effective in comparison with L1 and L3 | –
Cobalt(II)(2,6-bis(piperazin-1-ylmethyl)pyridine)chloride [L1] | very negligible effect | destructed into shorter filaments | 74 | – | – | 97
